In paper PMC13267113 (npj Drug Discovery, 2025):

Experiments:
[1] = Metabolic stability in mouse liver microsomes; format: in vitro ADME; conditions: pooled mouse liver microsomes, 0.5 mg/mL microsomes, NADPH
Method: The metabolic stability of testosterone, verapamil and ketoconazole was determined in parallel to confirm the enzymatic activity of mouse liver microsomes. For combination experiments, cobicistat was added to the incubation mixture together with test compounds. […] Concentration of the remaining test compound at the different time points was analyzed by HPLC-MS/MS (Vanquish Flex coupled to a TSQ Altis Plus, Thermo Fisher, Dreieich, Germany) and used to determine half-life (t1/2).

[2] = target: T1, scavenger receptor class B member 1 (SCARB1) (Homo sapiens, UniProt Q8WTV0); assay: Affinity-based protein profiling (AfBPP), SCARB1; format: binding; conditions: 12.5 µM pre-treatment before Cysto-354 (2.5 µM), HepG2, n = 4
T1 construct: endogenous in cells; host or cells: HepG2
T1 sequence (Q8WTV0 1-509 isoform Q8WTV0-2): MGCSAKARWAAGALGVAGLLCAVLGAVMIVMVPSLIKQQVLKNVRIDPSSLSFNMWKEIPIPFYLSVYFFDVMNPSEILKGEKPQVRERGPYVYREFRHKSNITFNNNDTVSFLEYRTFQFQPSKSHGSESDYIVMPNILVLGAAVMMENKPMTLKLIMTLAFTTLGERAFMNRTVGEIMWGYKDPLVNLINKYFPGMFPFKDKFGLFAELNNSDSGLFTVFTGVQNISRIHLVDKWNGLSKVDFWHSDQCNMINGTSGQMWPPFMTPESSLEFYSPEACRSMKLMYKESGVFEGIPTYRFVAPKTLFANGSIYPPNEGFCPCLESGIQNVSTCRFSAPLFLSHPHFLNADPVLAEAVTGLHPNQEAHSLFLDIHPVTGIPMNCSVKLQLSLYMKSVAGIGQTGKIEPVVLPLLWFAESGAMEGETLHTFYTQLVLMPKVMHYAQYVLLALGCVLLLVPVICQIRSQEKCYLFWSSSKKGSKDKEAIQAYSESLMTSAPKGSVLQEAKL
Method: Cells were seeded in 100 mm cell-bind petri dishes with a concentration of 2.8 × 10^6 cells per sample and incubated (37 °C, 5% CO2) for 3 days to reach ~80% confluence. Cells were washed with warm PBS prior to compound addition. Compound solutions as well as the DMSO control were generally added as freshly prepared solutions in pre-warmed, serum-free culture medium. Affinity-based proteome profiling was performed by treating the respective cell line with Cysto-354 (2.5 µM) for 3 h. For competition samples, cells were treated with CN-861-2 (12.5 µM) for 1 h, prior to addition of photo-probe Cysto-354 (2.5 µM) for 3 h incubation time. Control samples were treated with DMSO. Afterwards, cells were UV-irradiated for 10 min on ice, scraped off and transferred to Eppendorf tubes for washing with 1 mL cold PBS (centrifuge 5 min, 500g, 4 °C). The cell pellet was stored at −80 °C until lysis. Further sample preparation was done as previously described. […]
Peptides were measured and online-separated using an UltiMate 3000 nano HPLC system (Dionex) coupled to a Bruker timsTOF Pro mass spectrometer via a CaptiveSpray nano-electrospray ion source and Sonation column oven. […]
MS raw data was analyzed using MaxQuant software (version 2.0.3.0) and peptides were searched against Uniprot database for Homo sapiens (taxon identifier: 9606, downloaded on 11.03.2022, canonical, reviewed). […]

## CO[C@H](C(N)=O)[C@H](NC(=O)c1ccc(NC(=O)c2ccc(C#N)cc2)cc1)C(=O)Nc1ccc(C(=O)Nc2ccc(C(=O)Nc3ccc(C(=O)O)cc3)c(O)c2OC(C)C)cc1 [CN-861-2]
[1]; read-out: MLM Clint
  microsomal CLint at 1 μM: < 11.6 µL/min/mg
[1]; read-out: MLM t1/2
  half-life at 1 µM: > 2 h
[2]
  competition of SCARB1 enrichment: significant competition
